molecular target: KAT6A (Homo sapiens (Human), UniProt Q92794); assay: KAT6A Biochemical Assay (radiometric 384-well, [3H]-Ac-CoA, biotinylated H4(1-30) peptide); conditions: 5 nM KAT6A enzyme solution (2×), 60 min reaction at room temperature
Experimental: Inhibition of KAT6A enzymatic activity by test compounds was determined using a radiometric 384-well format assay. A 10-point serial dilution of the test compounds were conducted in DMSO and then a volume of 200 nL was transferred into 384-well assay plate by Echo (Labcyte). 10 μL of 2× enzyme solution (5 nM KAT6A (Active Motif) in assay buffer (50 mM Tris-HCl pH 8.0, 50 mM KCl, 0.1 mM EDTA, 5% glycerol, 1 mM DTT)) was dispensed into assay plate except for low control wells, in which 10 μL of assay buffer was transferred. The plate was incubated at room temperature for 15 min before addition of 10 μL of 2×[^3H]-acetyl coenzyme A (Ac-CoA) and substrate peptide mix solution (500 nM (KAT6A) [^3H]-Ac-CoA (PerkinElmer) and 800 nM (KAT6A) biotinylated H4(1-30) peptide (GL Biochem) in assay buffer) to each well to start reaction. The plate was incubated at room temperature for 60 min (KAT6A), and then the reaction was stopped by adding 10 μL of stop solution (cold Ac-CoA (Cayman) in 1× assay buffer). 25 μL of reaction in each well was transferred to Flashplate (PerkinElmer) and incubated for another 1 hour at room temperature. The plate was read on Microbeta and the inhibition percentage of each compound treated well was calculated based on the equation in h %=(Max−sample)/(Max−Min)*100 where Max is signal from high control wells with enzyme, and Min is signal from low control wells with assay buffer only. The in h % data were further fit in XL-Fit to obtain IC50 values using a 4-parameter logistic (4PL) sigmoidal curve model.

KAT6A, sequence (Q92794 whole entry): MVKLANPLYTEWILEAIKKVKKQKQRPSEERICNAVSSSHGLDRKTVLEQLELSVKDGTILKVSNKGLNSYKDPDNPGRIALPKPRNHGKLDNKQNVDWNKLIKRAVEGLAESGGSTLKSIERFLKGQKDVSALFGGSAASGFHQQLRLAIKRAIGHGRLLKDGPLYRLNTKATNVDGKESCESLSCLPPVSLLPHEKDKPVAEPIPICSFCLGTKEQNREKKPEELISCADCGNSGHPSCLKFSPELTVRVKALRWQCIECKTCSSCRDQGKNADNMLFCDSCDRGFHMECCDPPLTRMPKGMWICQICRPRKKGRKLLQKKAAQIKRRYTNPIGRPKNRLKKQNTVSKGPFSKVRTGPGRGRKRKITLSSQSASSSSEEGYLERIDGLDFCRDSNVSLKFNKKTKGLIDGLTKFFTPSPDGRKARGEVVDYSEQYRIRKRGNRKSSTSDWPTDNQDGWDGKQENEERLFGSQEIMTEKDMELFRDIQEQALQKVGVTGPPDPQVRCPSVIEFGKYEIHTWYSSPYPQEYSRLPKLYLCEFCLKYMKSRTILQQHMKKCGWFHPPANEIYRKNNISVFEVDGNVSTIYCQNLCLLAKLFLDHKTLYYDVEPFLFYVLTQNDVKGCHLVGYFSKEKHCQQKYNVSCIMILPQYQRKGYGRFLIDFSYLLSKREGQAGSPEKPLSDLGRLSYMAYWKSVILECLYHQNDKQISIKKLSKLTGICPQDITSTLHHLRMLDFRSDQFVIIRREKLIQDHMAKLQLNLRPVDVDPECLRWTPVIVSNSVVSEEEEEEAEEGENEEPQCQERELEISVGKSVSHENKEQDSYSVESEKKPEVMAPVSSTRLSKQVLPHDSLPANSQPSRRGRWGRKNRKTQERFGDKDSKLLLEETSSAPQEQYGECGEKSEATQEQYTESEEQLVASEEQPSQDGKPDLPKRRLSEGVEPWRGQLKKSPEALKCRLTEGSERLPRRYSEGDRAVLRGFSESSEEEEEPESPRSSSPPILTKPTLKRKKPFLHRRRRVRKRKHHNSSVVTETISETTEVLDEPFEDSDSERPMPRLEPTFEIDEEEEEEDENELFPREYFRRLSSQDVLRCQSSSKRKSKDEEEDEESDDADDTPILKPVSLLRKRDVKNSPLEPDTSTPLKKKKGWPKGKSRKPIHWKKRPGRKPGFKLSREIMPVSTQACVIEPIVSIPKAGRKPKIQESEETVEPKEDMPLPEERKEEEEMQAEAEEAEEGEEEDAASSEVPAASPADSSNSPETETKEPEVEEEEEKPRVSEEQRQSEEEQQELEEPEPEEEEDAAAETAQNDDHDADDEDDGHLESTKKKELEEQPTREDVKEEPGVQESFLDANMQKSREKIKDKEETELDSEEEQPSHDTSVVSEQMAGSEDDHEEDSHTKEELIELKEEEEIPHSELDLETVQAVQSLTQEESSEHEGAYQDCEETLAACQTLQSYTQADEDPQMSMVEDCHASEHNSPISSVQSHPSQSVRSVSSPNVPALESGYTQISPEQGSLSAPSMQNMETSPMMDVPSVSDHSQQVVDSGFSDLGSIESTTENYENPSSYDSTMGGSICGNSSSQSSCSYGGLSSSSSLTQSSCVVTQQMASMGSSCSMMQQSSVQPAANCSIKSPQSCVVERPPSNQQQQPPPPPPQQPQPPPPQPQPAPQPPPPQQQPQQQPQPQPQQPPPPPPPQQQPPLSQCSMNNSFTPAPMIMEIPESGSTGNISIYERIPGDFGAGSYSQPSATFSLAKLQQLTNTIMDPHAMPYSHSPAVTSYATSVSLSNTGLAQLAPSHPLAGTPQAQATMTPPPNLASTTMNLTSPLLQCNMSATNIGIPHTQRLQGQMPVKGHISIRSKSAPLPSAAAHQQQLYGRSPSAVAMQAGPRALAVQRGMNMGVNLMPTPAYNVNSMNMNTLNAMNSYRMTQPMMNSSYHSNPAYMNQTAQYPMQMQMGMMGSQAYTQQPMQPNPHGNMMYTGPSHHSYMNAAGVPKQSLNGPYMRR

Compound | IC50
COc1cccc(OC)c1S(=O)(=O)Nc1noc2cc(Cn3cccn3)cnc12 [Compound 1, N-(6-((1H-pyrazol-1-yl)methyl)isoxazolo[4,5-b]pyridin-3-yl)-2,6-dimethoxybenzenesulfonamide] | 10 to 1000 nM
COc1ccnc(OC)c1S(=O)(=O)Nc1noc2cc(Cn3cccn3)cc(OC)c12 [Compound 2, N-(6-((1H-pyrazol-1-yl)methyl)-4-methoxybenzo[d]isoxazol-3-yl)-2,4-dimethoxypyridine-3-sulfonamide] | 10 to 100 nM
COc1cccc(OC)c1S(=O)(=O)Nc1noc2cc(Cn3cccn3)cc(OC(F)F)c12 [Compound 3, N-(6-((1H-pyrazol-1-yl)methyl)-4-(difluoromethoxy)benzo[d]isoxazol-3-yl)-2,6-dimethoxybenzenesulfonamide] | < 10 nM
COc1cccc(OC)c1S(=O)(=O)Nc1noc2cc(Cn3cccn3)cc(OCC(F)(F)F)c12 [Compound 4, N-(6-((1H-pyrazol-1-yl)methyl)-4-(2,2,2-trifluoroethoxy)benzo[d]isoxazol-3-yl)-2,6-dimethoxybenzenesulfonamide] | 10 to 100 nM
COc1ccnc(OC)c1S(=O)(=O)Nc1noc2cc(Cn3cccn3)cc(OC(F)F)c12 [Compound 5, N-(6-((1H-pyrazol-1-yl)methyl)-4-(difluoromethoxy)benzo[d]isoxazol-3-yl)-2,4-dimethoxypyridine-3-sulfonamide] | 10 to 100 nM
COc1ccccc1S(=O)(=O)Nc1noc2cc(Cn3cccn3)cc(OC(F)F)c12 [Compound 6, N-(6-((1H-pyrazol-1-yl)methyl)-4-(difluoromethoxy)benzo[d]isoxazol-3-yl)-2-methoxybenzenesulfonamide] | 10 to 100 nM
O=S(=O)(Nc1noc2cc(Cn3cccn3)cc(OC(F)F)c12)c1ccccc1OC(F)(F)F [Compound 7, N-(6-((1H-pyrazol-1-yl)methyl)-4-(difluoromethoxy)benzo[d]isoxazol-3-yl)-2-(trifluoromethoxy)benzenesulfonamide] | 10 to 1000 nM
COc1cccc(OC)c1S(=O)(=O)Nc1noc2cc(Cn3cccn3)cc(OC(F)(F)F)c12 [Compound 8, N-(6-((1H-pyrazol-1-yl)methyl)-4-(trifluoromethoxy)benzo[d]isoxazol-3-yl)-2,6-dimethoxybenzenesulfonamide] | 10 to 100 nM
COc1cc(C)nc(OC)c1S(=O)(=O)Nc1noc2cc(Cn3cccn3)cc(OC)c12 [Compound 11, N-(6-((1H-pyrazol-1-yl)methyl)-4-methoxybenzo[d]isoxazol-3-yl)-2,4-dimethoxy-6-methylpyridine-3-sulfonamide] | < 10 nM
COc1ccccc1S(=O)(=O)Nc1noc2cc(Cn3cccn3)cc(OC(F)(F)F)c12 [Compound 12, N-(6-((1H-pyrazol-1-yl)methyl)-4-(trifluoromethoxy)benzo [d]isoxazol-3-yl)-2-methoxybenzenesulfonamide] | 10 to 100 nM
COc1cccc(OC)c1S(=O)(=O)Nc1noc2nc(Cn3cccn3)cc(OC)c12 [Compound 13, N-(6-((1H-pyrazol-1-yl)methyl)-4-methoxyisoxazolo[5,4-b]pyridin-3-yl)-2,6-dimethoxybenzenesulfonamide] | > 1000 nM
COc1ccccc1S(=O)(=O)Nc1noc2cc(Cn3cccn3)c3c(c12)OCCC3 [Compound 15, N-(5-((1H-pyrazol-1-yl)methyl)-3,4-dihydro-2H-chromeno [8,7-d]isoxazol-9-yl)-2-methoxybenzenesulfonamide] | < 10 nM
COc1ncccc1S(=O)(=O)Nc1noc2cc(Cn3cccn3)c3c(c12)OCCC3 [Compound 16, N-(5-((1H-pyrazol-1-yl)methyl)-3,4-dihydro-2H-chromeno [8,7-d]isoxazol-9-yl)-2-methoxypyridine-3-sulfonamide] | 10 to 100 nM
COc1ccnc(OC)c1S(=O)(=O)Nc1noc2cc(Cn3cccn3)c3c(c12)OCCC3 [Compound 17, N-(5-((1H-pyrazol-1-yl)methyl)-3,4-dihydro-2H-chromeno [8,7-d]isoxazol-9-yl)-2,4-dimethoxypyridine-3-sulfonamide] | < 10 nM
COc1cc(C)nc(OC)c1S(=O)(=O)Nc1noc2cc(Cn3cccn3)c3c(c12)OCCC3 [Compound 18, N-(5-((1H-pyrazol-1-yl)methyl)-3,4-dihydro-2H-chromeno [8,7-d]isoxazol-9-yl)-2,4-dimethoxy-6-methylpyridine-3-sulfonamide] | < 10 nM
COc1ccnc(OC)c1S(=O)(=O)Nc1noc2cc(Cn3cccn3)c3c(c12)OCCCC3 [Compound 20, N-(6-((1H-pyrazol-1-yl)methyl)-2,3,4,5-tetrahydrooxepino [3′,2′:5,6]benzo[1,2-d]isoxazol-10-yl)-2,4-dimethoxypyridine-3-sulfonamide] | < 10 nM

Compound | IC50
COc1cc(C)nc(OC)c1S(=O)(=O)Nc1noc2cc(Cn3cccn3)c3c(c12)OCCCC3 [Compound 21, N-(6-((1H-pyrazol-1-yl)methyl)-2,3,4,5-tetrahydrooxepino [3′,2′:5,6]benzo[1,2-d]isoxazol-10-yl)-2,4-dimethoxy-6-methylpyridine-3-sulfonamide] | < 10 nM
COc1ccccc1S(=O)(=O)Nc1noc2cc(Oc3ccccn3)c3c(c12)OCCC3 [Compound 25, 2-methoxy-N-(5-(pyridin-2-yloxy)-3,4-dihydro-2H-chromeno [8,7-d]isoxazol-9-yl)benzenesulfonamide] | < 10 nM
COc1ccccc1S(=O)(=O)Nc1noc2cc(Oc3ccccn3)c3c(c12)OCC3 [Compound 26, 2-methoxy-N-(4-(pyridin-2-yloxy)-2,3-dihydrobenzofuro[7,6-d]isoxazol-8-yl)benzenesulfonamide] | 10 to 100 nM
COc1cccc(OC)c1S(=O)(=O)Nc1noc2cc(Oc3cccnn3)c3c(c12)OCCC3 [Compound 30, 2,6-dimethoxy-N-(5-(pyridazin-3-yloxy)-3,4-dihydro-2H-chromeno[8,7-d]isoxazol-9-yl)benzenesulfonamide] | 10 to 100 nM
COc1cccc(OC)c1S(=O)(=O)Nc1noc2cc(Cn3cccn3)cc(OCF)c12 [Compound 31, N-(6-((1H-pyrazol-1-yl)methyl)-4-(fluoromethoxy)benzo [d]isoxazol-3-yl)-2,6-dimethoxybenzenesulfonamide] | < 10 nM
COc1ccnc(OC)c1S(=O)(=O)Nc1noc2cc(Cn3cccn3)c3c(c12)OCC3 [Compound 32, N-(4-((1H-pyrazol-1-yl)methyl)-2,3-dihydrobenzofuro[7,6-d]isoxazol-8-yl)-2,4-dimethoxypyridine-3-sulfonamide] | 10 to 100 nM
COc1cccc(OC)c1S(=O)(=O)Nc1noc2cc(Oc3ncccn3)c3c(c12)OCCC3 [Compound 33, 2,6-dimethoxy-N-(5-(pyrimidin-2-yloxy)-3,4-dihydro-2H-chromeno[8,7-d]isoxazol-9-yl)benzenesulfonamide] | 10 to 100 nM
COc1cccc(OC)c1S(=O)(=O)Nc1noc2cc(Oc3ncco3)c3c(c12)OCCC3 [Compound 34, 2,6-dimethoxy-N-(5-(oxazol-2-yloxy)-3,4-dihydro-2H-chromeno[8,7-d]isoxazol-9-yl)benzenesulfonamide] | < 10 nM
COc1cccc(OC)c1S(=O)(=O)Nc1noc2cc(Oc3ncccc3C)c3c(c12)OCCC3 [Compound 36, 2,6-dimethoxy-N-(5-((3-methylpyridin-2-yl)oxy)-3,4-dihydro-2H-chromeno[8,7-d]isoxazol-9-yl)benzenesulfonamide] | < 10 nM
COc1cc(C)nc(OC)c1S(=O)(=O)Nc1noc2cc(Cn3cccn3)cc(OCF)c12 [Compound 37] | < 10 nM
COc1cc(C)ncc1S(=O)(=O)Nc1noc2cc(Cn3cccn3)cc(OC)c12 [Compound 38, N-(6-((1H-pyrazol-1-yl)methyl)-4-methoxybenzo[d]isoxazol-3-yl)-4-methoxy-6-methylpyridine-3-sulfonamide] | 10 to 1000 nM
COc1cc(C2CC2)nc(OC)c1S(=O)(=O)Nc1noc2cc(Cn3cccn3)cc(OC)c12 [Compound 39, N-(6-((1H-pyrazol-1-yl)methyl)-4-methoxybenzo[d]isoxazol-3-yl)-6-cyclopropyl-2,4-dimethoxypyridine-3-sulfonamide] | 10 to 100 nM
COc1cc(C(F)F)nc(OC)c1S(=O)(=O)Nc1noc2cc(Cn3cccn3)cc(OC)c12 [Compound 40, N-(6-((1H-pyrazol-1-yl)methyl)-4-methoxybenzo[d]isoxazol-3-yl)-6-(difluoromethyl)-2,4-dimethoxypyridine-3-sulfonamide] | 10 to 1000 nM
COc1cc(C(F)(F)F)nc(OC)c1S(=O)(=O)Nc1noc2cc(Cn3cccn3)cc(OC)c12 [Compound 41, N-(6-((1H-pyrazol-1-yl)methyl)-4-methoxybenzo[d]isoxazol-3-yl)-2,4-dimethoxy-6-(trifluoromethyl)pyridine-3-sulfonamide] | 10 to 100 nM
COc1ccnc(OC)c1S(=O)(=O)Nc1noc2cc(Cn3cccn3)c(F)c(OCF)c12 [Compound 42, N-(6-((1H-pyrazol-1-yl)methyl)-5-fluoro-4-(fluoromethoxy)benzo[d]isoxazol-3-yl)-2,4-dimethoxypyridine-3-sulfonamide] | 10 to 100 nM
